# In patent publication US12427157B2, “Methods for treatment of diseases involving acidic or hypoxic diseased tissues” (Cybrexa 1, Inc., priority 2018, dated 2025):
# Residues, ends and D or L forms follow the SMILES beside them. *: point of attachment. X11 = CN(Cc1ccc(-c2[nH]c3cc(F)cc4c3c2CCNC4=O)cc1)C(=O)OCc1ccc(NC(=O)OCCS*)cc1; X13 = Cc1cc(COC(=O)N(C)Cc2ccc(-c3[nH]c4cc(F)cc5c4c3CCNC5=O)cc2)cc(C)c1S*; X5 = CNCc1ccc(-c2c3c4c(cc(F)cc4n2[C@H](CC(C)C)NC(=O)OCCS*)C(=O)NCC3)cc1; X15 = Cc1cc(S*)ccc1COC(=O)N(C)Cc1ccc(-c2[nH]c3cc(F)cc4c3c2CCNC4=O)cc1; X18 = CNCc1ccc(-c2c3c4c(cc(F)cc4n2CNC(=O)OCCS*)C(=O)NCC3)cc1
# Biological target: PARP (Homo sapiens, UniProt P09874)
# Sequence (P09874 whole entry): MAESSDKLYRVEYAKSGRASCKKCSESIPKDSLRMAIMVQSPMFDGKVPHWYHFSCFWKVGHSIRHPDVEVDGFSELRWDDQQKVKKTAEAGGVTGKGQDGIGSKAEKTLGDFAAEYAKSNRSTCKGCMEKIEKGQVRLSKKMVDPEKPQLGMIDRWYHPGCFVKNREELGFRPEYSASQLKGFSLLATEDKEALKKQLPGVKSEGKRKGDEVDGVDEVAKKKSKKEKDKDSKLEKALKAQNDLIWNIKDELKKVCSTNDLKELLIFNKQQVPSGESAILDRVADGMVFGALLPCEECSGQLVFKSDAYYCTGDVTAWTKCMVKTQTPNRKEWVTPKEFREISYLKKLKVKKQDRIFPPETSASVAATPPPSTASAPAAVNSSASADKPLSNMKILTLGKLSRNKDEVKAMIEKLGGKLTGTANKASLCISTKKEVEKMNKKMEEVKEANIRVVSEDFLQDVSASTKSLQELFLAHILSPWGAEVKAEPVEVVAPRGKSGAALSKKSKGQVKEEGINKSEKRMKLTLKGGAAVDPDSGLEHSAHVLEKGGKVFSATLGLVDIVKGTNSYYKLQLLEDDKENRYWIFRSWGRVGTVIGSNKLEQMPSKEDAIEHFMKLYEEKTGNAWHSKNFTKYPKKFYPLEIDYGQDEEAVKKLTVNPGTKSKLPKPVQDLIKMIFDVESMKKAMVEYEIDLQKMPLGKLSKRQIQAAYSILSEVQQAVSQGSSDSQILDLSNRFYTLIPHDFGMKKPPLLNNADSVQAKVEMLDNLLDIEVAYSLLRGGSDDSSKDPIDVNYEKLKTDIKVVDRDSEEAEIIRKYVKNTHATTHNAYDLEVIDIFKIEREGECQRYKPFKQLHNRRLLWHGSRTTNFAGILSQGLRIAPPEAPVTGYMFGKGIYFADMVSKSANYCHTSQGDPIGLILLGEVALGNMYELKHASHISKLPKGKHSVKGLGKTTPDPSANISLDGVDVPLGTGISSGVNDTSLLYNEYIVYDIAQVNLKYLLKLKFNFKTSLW
# Assay: Enzymatic Assay 2: HT Universal Chemiluminescent PARP Assay of cleaved compounds;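 also: PARP reaction with activated DNA run 1 h at room temperature, product detected via streptavidin-HRP and luminescence endpoint reading on a plate reader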
# Settings: read-out: IC50 Enzymatic Assay 2; Examples cleaved per Example A (crude cleavage solution); R^8H starting materials as such
# Method: An equal volume of 1×PARP cocktail containing activated DNA was added to each well and the reaction was incubated for one hour at room temperature. The wells were washed twice with 1×PBS+0.1% Triton X-100 and twice with PBS. 50 ul/well of diluted streptavidin-HRP was added and the wells were incubated for one hour at room temperature. The wells were washed twice with 1×PBS+0.1% Triton X-100 and washed twice with PBS. The liquid was 5 removed, 100 ul/well 1:1 PeroxyGlow A/PeroxyGlow B was added and the chemiluminescent readings were measured on a BioTek Cytation 5 plate reader using the luminescence fiber endpoint.
row,Structure (SMILES),IC50 [nM]
1,CC[C@H](C)[C@H](NC(=O)[C@@H]1CCCN1C(=O)[C@H](CC(N)=O)NC(=O)[C@H](CCC(N)=O)NC(=O)[C@H](CCC(=O)O)NC(=O)[C@H](C)N)C(=O)N[C@@H](Cc1ccc(O)cc1)C(=O)N[C@@H](Cc1c[nH]c2ccccc12)C(=O)N[C@@H](C)C(=O)N[C@@H](CCCNC(=N)N)C(=O)N[C@@H](Cc1ccc(O)cc1)C(=O)N[C@@H](C)C(=O)N[C@@H](CC(=O)O)C(=O)N[C@@H](Cc1c[nH]c2ccccc12)C(=O)N[C@@H](CC(C)C)C(=O)N[C@@H](Cc1ccccc1)C(=O)N[C@H](C(=O)N[C@H](C(=O)N1CCC[C@H]1C(=O)N[C@@H](CC(C)C)C(=O)N[C@@H](CC(C)C)C(=O)N[C@@H](CC(C)C)C(=O)N[C@@H](CC(C)C)C(=O)N[C@@H](CC(=O)O)C(=O)N[C@@H](CC(C)C)C(=O)N[C@@H](C)C(=O)N[C@@H](CC(C)C)C(=O)N[C@@H](CC(C)C)C(=O)N[C@H](C(=O)N[C@@H](CC(=O)O)C(=O)N[C@@H](C)C(=O)N[C@@H](CC(=O)O)C(=O)N[C@@H](CCC(=O)O)C(=O)N[C@@H](CSSc1ccc(COC(=O)N(C)Cc2ccc(-c3[nH]c4cc(F)cc5c4c3CCNC5=O)cc2)c(C)c1)C(=O)NCC(=O)O)C(C)C)[C@@H](C)O)[C@@H](C)O [Example 30] (H-AEQNPIYWARYADWLFTTPLLLLDLALLVDADEC(X15)G-OH; N-terminus and C-terminus assumed),2.9
2,CC[C@H](C)[C@H](NC(=O)[C@@H]1CCCN1C(=O)[C@H](CC(N)=O)NC(=O)[C@H](CCC(N)=O)NC(=O)[C@H](CCC(=O)O)NC(=O)[C@H](C)N)C(=O)N[C@@H](Cc1ccc(O)cc1)C(=O)N[C@@H](Cc1c[nH]c2ccccc12)C(=O)N[C@@H](C)C(=O)N[C@@H](CCCNC(=N)N)C(=O)N[C@@H](Cc1ccc(O)cc1)C(=O)N[C@@H](C)C(=O)N[C@@H](CC(=O)O)C(=O)N[C@@H](Cc1c[nH]c2ccccc12)C(=O)N[C@@H](CC(C)C)C(=O)N[C@@H](Cc1ccccc1)C(=O)N[C@H](C(=O)N[C@H](C(=O)N1CCC[C@H]1C(=O)N[C@@H](CC(C)C)C(=O)N[C@@H](CC(C)C)C(=O)N[C@@H](CC(C)C)C(=O)N[C@@H](CC(C)C)C(=O)N[C@@H](CC(=O)O)C(=O)N[C@@H](CC(C)C)C(=O)N[C@@H](C)C(=O)N[C@@H](CC(C)C)C(=O)N[C@@H](CC(C)C)C(=O)N[C@H](C(=O)N[C@@H](CC(=O)O)C(=O)N[C@@H](C)C(=O)N[C@@H](CC(=O)O)C(=O)N[C@@H](CCC(=O)O)C(=O)N[C@@H](CSSc1c(C)cc(COC(=O)N(C)Cc2ccc(-c3[nH]c4cc(F)cc5c4c3CCNC5=O)cc2)cc1C)C(=O)NCC(=O)O)C(C)C)[C@@H](C)O)[C@@H](C)O [Example 31] (H-AEQNPIYWARYADWLFTTPLLLLDLALLVDADEC(X13)G-OH; N-terminus and C-terminus assumed),3.3
3,CC[C@H](C)[C@H](NC(=O)[C@@H]1CCCN1C(=O)[C@H](CC(N)=O)NC(=O)[C@H](CCC(N)=O)NC(=O)[C@H](CCC(=O)O)NC(=O)[C@H](C)N)C(=O)N[C@@H](Cc1ccc(O)cc1)C(=O)N[C@@H](Cc1c[nH]c2ccccc12)C(=O)N[C@@H](C)C(=O)N[C@@H](CCCNC(=N)N)C(=O)N[C@@H](Cc1ccc(O)cc1)C(=O)N[C@@H](C)C(=O)N[C@@H](CC(=O)O)C(=O)N[C@@H](Cc1c[nH]c2ccccc12)C(=O)N[C@@H](CC(C)C)C(=O)N[C@@H](Cc1ccccc1)C(=O)N[C@H](C(=O)N[C@H](C(=O)N1CCC[C@H]1C(=O)N[C@@H](CC(C)C)C(=O)N[C@@H](CC(C)C)C(=O)N[C@@H](CC(C)C)C(=O)N[C@@H](CC(C)C)C(=O)N[C@@H](CC(=O)O)C(=O)N[C@@H](CC(C)C)C(=O)N[C@@H](C)C(=O)N[C@@H](CC(C)C)C(=O)N[C@@H](CC(C)C)C(=O)N[C@H](C(=O)N[C@@H](CC(=O)O)C(=O)N[C@@H](C)C(=O)N[C@@H](CC(=O)O)C(=O)N[C@@H](CCC(=O)O)C(=O)N[C@@H](CSSCCOC(=O)Nc1ccc(COC(=O)N(C)Cc2ccc(-c3[nH]c4cc(F)cc5c4c3CCNC5=O)cc2)cc1)C(=O)NCC(=O)O)C(C)C)[C@@H](C)O)[C@@H](C)O [Example 32] (H-AEQNPIYWARYADWLFTTPLLLLDLALLVDADEC(X11)G-OH; N-terminus and C-terminus assumed),43.9
4,CC[C@H](C)[C@H](NC(=O)[C@@H]1CCCN1C(=O)[C@H](CC(N)=O)NC(=O)[C@H](CCC(N)=O)NC(=O)[C@H](CCC(=O)O)NC(=O)[C@H](C)N)C(=O)N[C@@H](Cc1ccc(O)cc1)C(=O)N[C@@H](Cc1c[nH]c2ccccc12)C(=O)N[C@@H](C)C(=O)N[C@@H](CCCNC(=N)N)C(=O)N[C@@H](Cc1ccc(O)cc1)C(=O)N[C@@H](C)C(=O)N[C@@H](CC(=O)O)C(=O)N[C@@H](Cc1c[nH]c2ccccc12)C(=O)N[C@@H](CC(C)C)C(=O)N[C@@H](Cc1ccccc1)C(=O)N[C@H](C(=O)N[C@H](C(=O)N1CCC[C@H]1C(=O)N[C@@H](CC(C)C)C(=O)N[C@@H](CC(C)C)C(=O)N[C@@H](CC(C)C)C(=O)N[C@@H](CC(C)C)C(=O)N[C@@H](CC(=O)O)C(=O)N[C@@H](CC(C)C)C(=O)N[C@@H](C)C(=O)N[C@@H](CC(C)C)C(=O)N[C@@H](CC(C)C)C(=O)N[C@H](C(=O)N[C@@H](CC(=O)O)C(=O)N[C@@H](C)C(=O)N[C@@H](CC(=O)O)C(=O)N[C@@H](CCC(=O)O)C(=O)N[C@@H](CSSCCOC(=O)NCn1c(-c2ccc(CNC)cc2)c2c3c(cc(F)cc31)C(=O)NCC2)C(=O)NCC(=O)O)C(C)C)[C@@H](C)O)[C@@H](C)O [Example 33] (H-AEQNPIYWARYADWLFTTPLLLLDLALLVDADEC(X18)G-OH; N-terminus and C-terminus assumed),2.3
5,CC[C@H](C)[C@H](NC(=O)[C@@H]1CCCN1C(=O)[C@H](CC(N)=O)NC(=O)[C@H](CCC(N)=O)NC(=O)[C@H](CCC(=O)O)NC(=O)[C@H](C)N)C(=O)N[C@@H](Cc1ccc(O)cc1)C(=O)N[C@@H](Cc1c[nH]c2ccccc12)C(=O)N[C@@H](C)C(=O)N[C@@H](CCCNC(=N)N)C(=O)N[C@@H](Cc1ccc(O)cc1)C(=O)N[C@@H](C)C(=O)N[C@@H](CC(=O)O)C(=O)N[C@@H](Cc1c[nH]c2ccccc12)C(=O)N[C@@H](CC(C)C)C(=O)N[C@@H](Cc1ccccc1)C(=O)N[C@H](C(=O)N[C@H](C(=O)N1CCC[C@H]1C(=O)N[C@@H](CC(C)C)C(=O)N[C@@H](CC(C)C)C(=O)N[C@@H](CC(C)C)C(=O)N[C@@H](CC(C)C)C(=O)N[C@@H](CC(=O)O)C(=O)N[C@@H](CC(C)C)C(=O)N[C@@H](C)C(=O)N[C@@H](CC(C)C)C(=O)N[C@@H](CC(C)C)C(=O)N[C@H](C(=O)N[C@@H](CC(=O)O)C(=O)N[C@@H](C)C(=O)N[C@@H](CC(=O)O)C(=O)N[C@@H](CCC(=O)O)C(=O)N[C@@H](CSSCCOC(=O)N[C@@H](CC(C)C)n1c(-c2ccc(CNC)cc2)c2c3c(cc(F)cc31)C(=O)NCC2)C(=O)NCC(=O)O)C(C)C)[C@@H](C)O)[C@@H](C)O [Example 34] (H-AEQNPIYWARYADWLFTTPLLLLDLALLVDADEC(X5)G-OH; N-terminus and C-terminus assumed),2.5
